# Experimental data: publication PMC6556870 (European Journal of Pharmaceutical Sciences, 2019)
# Assays:
# rats = details: rat, in vivo, cited from earlier work
# Male Han Wistar rats = test: Clinical signs / tolerability after single IV or PO administration
# Description: (§1) Fifteen male Han Wistar rats were obtained from Charles River Laboratories, Margate, UK. Animals were all in the target weight range of 163 to 215 g at dosing. Diet was removed at the end of the working day prior to each dose occasion, and returned 4 h after dosing.
# (§2) Each animal received a single administration (Table 2). PO doses were administered by gavage at a nominal dose volume of 5 ml/kg. IV doses were administered via a lateral tail vein, at a nominal dose volume of 2 ml/kg, as a bolus injection. Body weights were recorded the day after arrival and before dose administration and used for calculation of doses. Samples of blood (nominally 150 μl) were collected from the jugular vein of each animal. For PO dosing this was done at 0.25, 0.5, 1, 2, 4, 6, 8 and 24 h post dose. For IV dosing this was at 0.016, 0.083, 0.5, 1, 2, 4, 8 and 24 h post dose. The actual blood collection time was used in the subsequent PK data analysis. Blood was collected into tubes containing the K2EDTA anticoagulant and stored at room temperature. Blood was centrifuged (1500g, 10 min, 4 °C) to produce plasma for analysis and residual blood cells were discarded.
# The following results were calculated for each group.
# humans = tested on: humans; design: method as in Knip et al., 2000; details: human adults, orally; ref Knip et al., 2000; cited from earlier work
# in vivo = details: rat, iv
# Description: as §1, §2
# Transfer of a 10 μl aliquot into a clean 2 ml […] collection plate • 2. Addition of 25 μl I-B (500 ng/ml). Addition of 25 μl methanol to all blanks • 3. Vortex mix plate (ca. 1 min) • 4. Addition of 80 μl methanol to all wells • 5. Vortex mix plate (ca. 2 min) • 6. Centrifuge 2000g plate for 10 min at room temperature • 7. Transfer 40 μl of supernatant to a clean 1.2 ml 96-well collection plate • 8. Dilute with 160 μl 10 mM of ammonium acetate:ammonium hydroxide (100:0.5 v/v) solution • 9. Vortex mix plate (ca. 2 min) • 10. Complete analysis by LC/MS-MS.
smiles,measurement,setting,value
"NC(=O)c1cccnc1 [NA, Nicotinamide, reference compound]","safe dose in rats, IP injection",rats; ip,1000 mg/kg
same,"safe dose in rats, subcutaneous injection",rats; sc,750 mg/kg
same,clinical signs associated with administration,"Male Han Wistar rats; IV or PO, doses up to 120 mg/kg, fifteen male rats",No clinical signs
same,adult dose at which NA is a safe therapy,humans,up to 10 g/day
same,time by which agent is completely cleared / plasma level returns to baseline,"in vivo; male, Han Wistar",≤ 24 h
same,AUC(0-inf),"in vivo; male, Han Wistar, 120 mg/kg",774 µg·h/mL
same,AUC(0-t),"in vivo; male, Han Wistar, 120 mg/kg",573 µg·h/mL
same,C0,"in vivo; male, Han Wistar, 120 mg/kg",178 µg/mL
same,Cmax,"in vivo; male, Han Wistar, 120 mg/kg",168 µg/mL
same,Vd,"in vivo; male, Han Wistar, 120 mg/kg",0.911 L/kg
same,clearance,"in vivo; male, Han Wistar, 120 mg/kg",2.72 mL/min/kg
same,half-life,"in vivo; male, Han Wistar, 120 mg/kg, t½",4 h
"[2H]c1cc([2H])c(C(N)=O)cn1 [d2-NA, 4,6-d2-Nicotinamide]",tolerability,"Male Han Wistar rats; regardless of route of administration (IV, PO), 20, 80 and 120 mg/kg, rat",well tolerated
same,time by which agent is completely cleared / plasma level returns to baseline,in vivo,≤ 24 h
same,C0,in vivo; 20 mg/kg,"28,700 ng/ml"
same,Cl,in vivo; 20 mg/kg,9.77 mL/min/kg
same,Vz,in vivo; 20 mg/kg,0.691 L/kg
same,AUC(0–t),in vivo; 60 mg/kg,"196,000 h·ng/ml"
same,AUC(0–∞),in vivo; 60 mg/kg,"197,000 h·ng/ml"
same,C0,in vivo; 60 mg/kg,"82,700 ng/ml"
same,Cl,in vivo; 60 mg/kg,5.12 mL/min/kg
same,Cmax,in vivo; 60 mg/kg,"79,400 ng/ml"
same,Vz,in vivo; 60 mg/kg,0.963 L/kg
same,t½,in vivo; 60 mg/kg,2.23 h
same,C0,in vivo; 120 mg/kg,"172,000 ng/ml"
same,Cl,in vivo; 120 mg/kg,4.37 mL/min/kg
same,Vz,in vivo; 120 mg/kg,0.877 L/kg
